In patent US20250151724A1, “Liquid Soil Treatments Containing Choline” (Harrell's, LLC, priority 2023, published 2025):

Test system: creeping bentgrass putting greens
Assay: Experiment No. 5: putting green field trial of Fleet100 and choline alone or in combination
Type: in vivo
Details: Fleet100 5 fl oz, choline 0.25 oz/1000 ft^2 monthly
Description: There were 4 treatments with 4 replications. Plot size was 5×6 ft. Regular mowing and irrigation were performed. A randomized block design was used. Fleet® 100 was supplied by […]) and choline from Sigma-Aldrich, Inc. (St. Louis, MO) were used in this study. The treatments were as follows: • 1. […] N/1,000 ft^2 biweekly • 3. […] N/1,000 ft^2 biweekly • 4. […] The trial lasted for 12 weeks and a total of 3 treatment applications. […] Leaf chlorophyll content. Leaf samples were collected biweekly and chlorophyll content was determined using the spectrophotometer method described by Zhang et al. (2005). • e. Volumetric water content. […] At day 9 of the dry down cycles, leaf samples were collected and leaf proline content was analyzed. Irrigation was resumed after day 9 of each dry down cycle. […] Leaf proline content. Leaf samples were collected at the end of each dry down cycle and proline content was measured by using the method described by Wu et al. (2017). • g. Root characteristics, biomass, and viability. […] The root length, root diameter, root surface area, and root volume were analyzed using WinRHIZO technology. Briefly, after fine cleaning of each root sample, the sample from each plot was divided into multiple subsamples. Each subsample was scanned using WinRHIZO and all root morphological parameters were generated and analyzed. In addition, root viability was analyzed using TTC method (Zhang et al., 2017). Root viability is a good indicator of root function.

## C[N+](C)(C)CCO.[Cl-] [Choline, choline chloride]
Day 0
  Chlorophyll Content: 2.45a mg/g fresh weight
  Leaf color (1-9, 9 = dark green): 7.5a
  Photochemical Efficiency (Fv/Fm): 0.720a
  Turf quality (1-9, 9 = best): 7.5a
Day 14
  Chlorophyll Content: 2.90a mg/g fresh weight
  Leaf color (1-9, 9 = dark green): 7.6ab
  Photochemical Efficiency (Fv/Fm): 0.696a
  Turf quality (1-9, 9 = best): 7.4a
Day 22
  Leaf color (1-9, 9 = dark green): 7.4a
  Photochemical Efficiency (Fv/Fm): 0.664a
  Turf quality (1-9, 9 = best): 6.8ab
Day 22 (end of 1st dry-down cycle)
  Proline: 467.0a ug/g FW
Day 28
  Chlorophyll Content: 3.85a mg/g fresh weight
  Leaf color (1-9, 9 = dark green): 7.8a
  Photochemical Efficiency (Fv/Fm): 0.761a
  Turf quality (1-9, 9 = best): 7.6b
Day 40
  Photochemical Efficiency (Fv/Fm): 0.714a
Day 42
  Chlorophyll Content: 3.03a mg/g fresh weight
  Leaf color (1-9, 9 = dark green): 6.9ab
  Photochemical Efficiency (Fv/Fm): 0.634a
  Turf quality (1-9, 9 = best): 6.5b
Day 42 (end of 2nd dry-down cycle)
  Proline: 538.0a ug/g FW
Day 56
  Chlorophyll Content: 3.46a mg/g fresh weight
  Leaf color (1-9, 9 = dark green): 7.7ab
  Photochemical Efficiency (Fv/Fm): 0.729a
  Turf quality (1-9, 9 = best): 7.4b
Day 70
  Chlorophyll Content: 2.79b mg/g fresh weight
  Leaf color (1-9, 9 = dark green): 7.4ab
  Photochemical Efficiency (Fv/Fm): 0.733ab
  Turf quality (1-9, 9 = best): 7.2ab
Day 84
  Chlorophyll Content: 2.57a mg/g fresh weight
  Leaf color (1-9, 9 = dark green): 7.4b
  Photochemical Efficiency (Fv/Fm): 0.733ab
  Turf quality (1-9, 9 = best): 7.3b
End of trial
  Root Biomass: 2.14ab mg/cm^3
  Root Diameter: 0.187b mm
  Root Length: 118.2a cm/cm^3
  Root SA: 7.02ab cm^2/cm^3
  Root Volume: 33.4ab cm^3/dm^3
End of trial, TTC method
  Root Viability: 0.49a A490/g FW
